Data: patent publication US10363239B2, “Method for inhibiting growth of cancer cells” (Pain Therapeutics, Inc., priority 2013, dated 2019)

What was measured:
[1] = tested on: pS2152FLNA, FLNA-associated PTEN and PP2A in primary human pancreatic epithelial cells (HPEC); assay: pS2152FLNA and FLNA-associated PTEN and PP2A in anti-FLNA immunoprecipitate (Western blotting); assay type: cell-based; settings: 0.1-5 nM; 4 days
Protocol: The effect of contact with Compound C0105 on the levels of pS^2152FLNA and FLNA-associated phosphatases, PTEN and PP2A subclasses was determined in MiaPaCa2 and HPECs. Cells were contacted with vehicle and 0.1-5 nM Compound C0105 for 4 days. Cells were washed, solubilized and the cell lysate derived was immunoprecipitated with anti-FLNA. The levels of […] and FLNA-associated phosphatases, PTEN and PP2A subclasses in the anti-FLNA immunoprecipitate were determined by Western blotting. The density of protein bands was quantified by densitometric scan. […] Data are expressed as mean±S.E.M. of ratios (FIGS. 27C, 27E and 27G) and percentage inhibition (FIGS. 27D, 27F and 27H). […] N=4. **p<0.05, *p<0.01 compared to vehicle (open bars). […]
The cell lysates were diluted 5-fold with immunoprecipitation buffer and immunoprecipitated with anti-FLNA, -Akt, -mTOR and -ERK2 as described previously [Talbot et al., J Clin Inv 122(4):1-23 (2012); Wang et al., J Neurosci 32(29):9773-9784 (2012)]. The levels of FLNA linkages, activated phosphorylated Akt (pS^473 and pT^308), phosphorylated mTOR (pS^2448) and phosphorylated ERK2 (pY/pT) were determined in anti-FLNA, -Akt, -mTOR and -ERK2 immunoprecipitates by Western blotting with appropriate antibodies directed against PTEN, PP2A, K-RAS, ras-GAP (FLNA linkages), pS^473Akt, pT^308Akt, pS^2448mTOR and pY/pT ERK2 (activation of Akt, mTOR and ERK2).

[2] = tested on: MiaPaCa2 cells; assay: Blocking of compound effects with FLNA decoy pentapeptide VAKGL or control peptide VAAGL; assay type: cell-based, human; settings: 4 days
Protocol: FIGS. 32A-32D illustrate Western blots of pS^2152FLNA, Ras-GAP, PP2A-Aα/β, PTEN and FLNA in FIG. 32A and Ki67, PCNA and actin in FIG. 32C after four days of incubation (contact) of MiaPaCa2 cells in the presence of medium alone, or medium containing 1 nM Compound C0105 with and without the presence of 10 μM peptide VAAGL (SEQ ID NO: 2) or peptide VAKGL (SEQ ID NO: 1). Densitometric quantification of the Western blot results are shown in the graphs of FIG. 32B for the amounts of pS^2152FLNA, Ras-GAP, PP2A-Aα/β and PTEN in anti-FLNA immunoprecipitates and the amounts of Ki76 and PCNA (normalized by actin) in FIG. 32D. N=4, *p<0.01.
To confirm that Compound C0105 effects are mediated by binding to FLNA pentapeptide VAKGL (SEQ ID NO: 1), cancer cells were incubated with vehicle or 1 nM Compound C0105 together with 10 μM of decoy pentapeptide (VAKGL) or control peptide, VAAGL (K-A decoy peptide; SEQ ID NO: 2) for 4 days as described previously.
Cells were harvested by centrifugation and solubilized, and lysates were immunoprecipitated with anti-FLNA. Levels of pS^2152FLNA, PTEN, PP2A-Aα, PP2A-Aβ and Ras-GAP in the anti-FLNA immunoprecipitates were determined by Western blotting.
A separate series of studies was undertaken to determine whether Compound C0105's reduction in proliferation markers is also mediated by Compound C0105 binding to the pentapeptide region of FLNA. As above, cancer cells were incubated for 4 days with vehicle or 1 nM Compound C0105 together with 10 μM of decoy pentapeptide (VAKGL; SEQ ID NO: 1) or control peptide, VAAGL (SEQ ID NO: 2).
Cells were harvested by centrifugation and the resultant cell pellets were washed and sonicated in ice-cold immunoprecipitation buffer. Protein concentrations were measured by the Bradford method. […] Fifty μl of solubilized cell lysates were separated using SDS-PAGE, the protein bands electrophoretically transferred to nitrocellulose membranes and the level of cell proliferation was determined by Western blotting using the levels of Ki67 and PCNA as described previously.

CN1CCC2(CC1)NCC(=O)N2Cc1ccccc1 [Compound C0105]
Phosphatase (PTEN, PP2A) associations with FLNA [1]: no effect
pS2152FLNA level [1]: no effect
Effect on pS2152FLNA and FLNA associations when co-incubated with control peptide VAAGL ([2]; 1 nM compound + 10 μM VAAGL (SEQ ID NO: 2)): did not disrupt Compound C0105 effects
Effect on pS2152FLNA and FLNA associations when co-incubated with VAKGL decoy pentapeptide ([2]; 1 nM compound + 10 μM VAKGL (SEQ ID NO: 1)): lost its effect on pS^2152FLNA hyperphosphorylation and on FLNA associations with ras-GAP, PTEN and PP2A
Reduction in cell proliferation (Ki67, PCNA) when co-incubated with VAKGL decoy pentapeptide ([2]; 1 nM compound + 10 μM VAKGL): disrupted Compound C0105's reduction in cell proliferation
